Results reported in EP2776398B1, “SUBSTITUTED PYRAZOLYL-BASED UREA DERIVATIVES AS VANILLOID RECEPTOR LIGANDS” (Medifron DBT Inc., priority 2011, dated 2013).

These molecules were tested against T1, vanilloid receptor 1 (VR1/TRPV1 receptor) (Homo sapiens, UniProt Q8NER1) (assay: Functional testing on vanilloid receptor 1: FLIPR Ca2+ influx assay against capsaicin (Cap) in transfected CHO K1 cells (pharmacological method II)). Details: @ 1µM; human VR1 in CHO K1 cells; capsaicin; relative to maximum inhibition with 10 µM capsazepine; read-out: inhibition (as a percentage), printed in column (f) Ki (human being) [nM] Cap.
T1 construct: expressed in transfected cells; host or cells: CHO K1 cells (ECACC), stably transfected
Format: cell-based
Design: key to (f) Ki (human being) [nM] Cap: agonist classification: AG = agonist
Source text: […]
For Ki in this document: 100 nM capsaicin.

T1 sequence (Q8NER1 whole entry): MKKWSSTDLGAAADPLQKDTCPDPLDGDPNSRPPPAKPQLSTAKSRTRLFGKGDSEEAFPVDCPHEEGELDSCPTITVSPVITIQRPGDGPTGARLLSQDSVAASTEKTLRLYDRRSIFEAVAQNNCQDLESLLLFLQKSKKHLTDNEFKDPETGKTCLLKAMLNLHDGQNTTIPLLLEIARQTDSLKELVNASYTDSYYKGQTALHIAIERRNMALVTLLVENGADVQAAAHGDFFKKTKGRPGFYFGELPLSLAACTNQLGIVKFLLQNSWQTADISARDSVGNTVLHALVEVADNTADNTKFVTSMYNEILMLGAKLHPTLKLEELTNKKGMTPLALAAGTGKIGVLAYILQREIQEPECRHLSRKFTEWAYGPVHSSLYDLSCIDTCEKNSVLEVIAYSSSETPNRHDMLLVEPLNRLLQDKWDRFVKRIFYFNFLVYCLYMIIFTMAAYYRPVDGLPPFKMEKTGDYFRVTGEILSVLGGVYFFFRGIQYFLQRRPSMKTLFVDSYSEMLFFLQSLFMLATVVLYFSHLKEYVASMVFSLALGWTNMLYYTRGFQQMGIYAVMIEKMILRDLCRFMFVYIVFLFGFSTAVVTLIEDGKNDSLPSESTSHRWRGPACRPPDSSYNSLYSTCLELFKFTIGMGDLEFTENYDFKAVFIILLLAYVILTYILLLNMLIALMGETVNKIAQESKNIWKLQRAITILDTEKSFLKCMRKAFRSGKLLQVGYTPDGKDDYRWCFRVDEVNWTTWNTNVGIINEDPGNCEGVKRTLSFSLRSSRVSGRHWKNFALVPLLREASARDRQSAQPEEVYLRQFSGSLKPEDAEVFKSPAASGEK

| inhibition at 1 µM [%] | SMILES |
| --- | --- |
| 15 | CCOc1cc(C)cc(-n2nc(C(F)(F)F)cc2CNC(=O)Nc2ccc(COCCO)c(F)c2)c1 [A135, 1-[[2-(3-Ethoxy-5-methyl-phenyl)-5-(trifluoromethyl)-2H-pyrazol-3-yl]-methyl]-3-[3-fluoro-4-(2-hydroxy-ethoxy-methyl)-phenyl]-urea] |

Same assay, conditions: @ 5µM; human VR1 in CHO K1 cells; capsaicin; relative to maximum inhibition with 10 µM capsazepine; read-out: inhibition (as a percentage), printed in column (f) Ki (human being) [nM] Cap

| inhibition at 5 µM [%] | SMILES |
| --- | --- |
| 39 | CC(C)(C)c1cc(CNC(=O)Nc2ccc(C(CO)CO)c(F)c2)n(-c2cccc(Cl)c2)n1 [A152, 1-[[5-tert-Butyl-2-(3-chlorophenyl)-2H-pyrazol-3-yl]-methyl]-3-[3-fluoro-4-[2-hydroxy-1-(hydroxymethyl)-ethyl]-phenyl]-urea] |
| 24 | CC(C)(C)c1cc(CNC(=O)Nc2ccc(C(O)(CO)CO)cc2)n(-c2cccc(Cl)c2)n1 [A159, 1-[[5-tert-Butyl-2-(3-chlorophenyl)-2H-pyrazol-3-yl]-methyl]-3-[4-[1,2-dihydroxy-1-(hydroxymethyl)-ethyl]-phenyl]-urea] |
| 50 | O=C(NCc1cc(C(F)(F)F)nn1-c1cccc(Cl)c1)Nc1ccc(C(CO)CO)c(F)c1 [A153, 1-[[2-(3-Chlorophenyl)-5-(trifluoromethyl)-2H-pyrazol-3-yl]-methyl]-3-[3-fluoro-4-[2-hydroxy-1-(hydroxymethyl)-ethyl]-phenyl]-urea] |

Same assay, conditions: human VR1 in CHO K1 cells; AG printed instead of a Ki

| (f) Ki (human being) [nM] Cap: agonist classification | SMILES |
| --- | --- |
| AG | COc1ccc(NC(=O)NCc2cc(C(F)(F)F)nn2-c2cccc(Cl)c2)cc1O [A16, 1-[[2-(3-Chlorophenyl)-5-(trifluoromethyl)-2H-pyrazol-3-yl]-methyl]-3-(3-hydroxy-4-methoxy-phenyl)-urea] |
| AG | CC(C)(C)c1cc(CNC(=O)Nc2ccc(OCC(O)CO)c(F)c2)n(-c2cccc(Cl)c2)n1 (centres unmarked) [A24, 1-[[5-tert-Butyl-2-(3-chlorophenyl)-2H-pyrazol-3-yl]-methyl]-3-[4-(2,3-dihydroxy-propoxy)-3-fluoro-phenyl]-urea] |

Same assay, conditions: read-out: (f) Ki (human being) [nM] Cap

| SMILES | Ki [nM] |
| --- | --- |
| COc1ccc(-n2nc(C(F)(F)F)cc2CNC(=O)Nc2ccc(CO)c(F)c2)cc1F [A95, 1-[3-Fluoro-4-(hydroxymethyl)-phenyl]-3-[[2-(3-fluoro-4-methoxy-phenyl)-5-(trifluoromethyl)-2H-pyrazol-3-yl]-methyl]-urea] | 13 |
| O=C(NCc1cc(C(F)(F)F)nn1-c1ccc(F)c(Cl)c1)Nc1ccc(CO)c(F)c1 [A65, 1-[[2-(3-Chloro-4-fluoro-phenyl)-5-(trifluoromethyl)-2H-pyrazol-3-yl]-methyl]-3-[3-fluoro-4-(hydroxymethyl)-phenyl]-urea] | 6 |
| Cc1cccc(-n2nc(C(F)(F)F)cc2CNC(=O)Nc2ccc(CO)c(F)c2)c1C [A72, 1-[[2-(2,3-Dimethyl-phenyl)-5-(trifluoromethyl)-2H-pyrazol-3-yl]-methyl]-3-[3-fluoro-4-(hydroxymethyl)-phenyl]-urea] | 14 |
| CCOc1ccc(-n2nc(C(F)(F)F)cc2CNC(=O)Nc2ccc(CO)c(F)c2)cc1C [A79, 1-[[2-(4-Ethoxy-3-methyl-phenyl)-5-(trifluoromethyl)-2H-pyrazol-3-yl]-methyl]-3-[3-fluoro-4-(hydroxymethyl)-phenyl]-urea] | 20 |
| CC(C(=O)NCc1cc(C(C)(C)C)nn1-c1cccc(F)c1)c1ccc(COCCO)c(F)c1 (centres unmarked) [A116, N-[[5-tert-Butyl-2-(3-fluorophenyl)-2H-pyrazol-3-yl]-methyl]-2-[3-fluoro-4-(2-hydroxy-ethoxy-methyl)-phenyl]-propionamide] | 18 |
| COc1c(F)cc(CC(=O)NCc2cc(C(F)(F)F)nn2-c2cccc(Cl)c2)cc1F [A2, N-[[2-(3-Chlorophenyl)-5-(trifluoromethyl)-2H-pyrazol-3-yl]-methyl]-2-(3,5-difluoro-4-methoxy-phenyl)-acetamide] | 33 |
| CC(C)(C)c1cc(CNC(=O)Nc2ccc(CO)c(Cl)c2)n(-c2cccc(Cl)c2)n1 [A96, 1-[[5-tert-Butyl-2-(3-chlorophenyl)-2H-pyrazol-3-yl]-methyl]-3-[3-chloro-4-(hydroxymethyl)-phenyl]-urea] | 2 |
| CC(C(=O)NCc1cc(C(F)(F)F)nn1-c1cccc(Cl)c1)c1ccc(COCCO)c(F)c1 (centres unmarked) [A118, N-[[2-(3-Chlorophenyl)-5-(trifluoromethyl)-2H-pyrazol-3-yl]-methyl]-2-[3-fluoro-4-(2-hydroxy-ethoxy-methyl)-phenyl]-propionamide] | 27 |
| COc1c(F)cc(C(C)C(=O)NCc2cc(C(C)(C)C)nn2-c2cccc(Cl)c2)cc1F (centres unmarked) [A4, N-[[5-tert-Butyl-2-(3-chlorophenyl)-2H-pyrazol-3-yl]-methyl]-2-(3,5-difluoro-4-methoxy-phenyl)-propionamide] | 2 |
| COc1cc(C)cc(-n2nc(C(F)(F)F)cc2CNC(=O)Nc2ccc(CO)c(F)c2)c1 [A92, 1-[3-Fluoro-4-(hydroxymethyl)-phenyl]-3-[[2-(3-methoxy-5-methyl-phenyl)-5-(trifluoromethyl)-2H-pyrazol-3-yl]-methyl]-urea] | 19 |
| Cc1cc(F)cc(-n2nc(C(F)(F)F)cc2CNC(=O)Nc2ccc(CO)c(F)c2)c1 [A77, 1-[3-Fluoro-4-(hydroxymethyl)-phenyl]-3-[[2-(3-fluoro-5-methyl-phenyl)-5-(trifluoromethyl)-2H-pyrazol-3-yl]-methyl]-urea] | 19 |
| Cc1ccc(-n2nc(C(F)(F)F)cc2CNC(=O)Nc2ccc(CO)c(F)c2)cc1 [A71, 1-[3-Fluoro-4-(hydroxymethyl)-phenyl]-3-[[2-(p-tolyl)-5-(trifluoromethyl)-2H-pyrazol-3-yl]-methyl]-urea] | 42 |
| CC(C(=O)NCc1cc(C(F)(F)F)nn1-c1cccc(Cl)c1)c1ccc(C(O)CO)c(F)c1 (centres unmarked) [A148, N-[[2-(3-Chlorophenyl)-5-(trifluoromethyl)-2H-pyrazol-3-yl]-methyl]-2-[4-(1,2-dihydroxy-ethyl)-3-fluoro-phenyl]-propionamide] | 4 |
| CC(C)(C)c1cc(CNC(=O)Nc2ccc(C3(O)COC3)c(F)c2)n(-c2cccc(Cl)c2)n1 [A109, 1-[[5-tert-Butyl-2-(3-chlorophenyl)-2H-pyrazol-3-yl]-methyl]-3-[3-fluoro-4-(3-hydroxy-oxetan-3-yl)-phenyl]-urea] | 43 |
| CN(C)c1cccc(-n2nc(C(F)(F)F)cc2CNC(=O)Nc2ccc(CO)c(F)c2)c1 [A86, 1-[[2-(3-Dimethylamino-phenyl)-5-(trifluoromethyl)-2H-pyrazol-3-yl]-methyl]-3-[3-fluoro-4-(hydroxymethyl)-phenyl]-urea] | 25 |
| O=C(NCc1cc(C(F)(F)F)nn1-c1ccccc1F)Nc1ccc(CO)c(F)c1 [A61, 1-[3-Fluoro-4-(hydroxymethyl)-phenyl]-3-[[2-(2-fluorophenyl)-5-(trifluoromethyl)-2H-pyrazol-3-yl]-methyl]-urea] | 26 |
| Cc1ccc(-n2nc(C(F)(F)F)cc2CNC(=O)Nc2ccc(CO)c(F)c2)cc1C [A75, 1-[[2-(3,4-Dimethyl-phenyl)-5-(trifluoromethyl)-2H-pyrazol-3-yl]-methyl]-3-[3-fluoro-4-(hydroxymethyl)-phenyl]-urea] | 19 |

Next, values leading:

| Ki [nM] | SMILES |
| --- | --- |
| 7 | COc1c(F)cc(C(C)C(=O)NCc2cc(C(F)(F)F)nn2-c2ccc(F)c(Cl)c2)cc1F (centres unmarked) [A9, N-[[2-(3-Chloro-4-fluoro-phenyl)-5-(trifluoromethyl)-2H-pyrazol-3-yl]-methyl]-2-(3,5-difluoro-4-methoxy-phenyl)-propionamide] |
| 86 | CCOc1ccc(C)cc1-n1nc(C(F)(F)F)cc1CNC(=O)Nc1ccc(CO)c(F)c1 [A88, 1-[[2-(2-Ethoxy-5-methyl-phenyl)-5-(trifluoromethyl)-2H-pyrazol-3-yl]-methyl]-3-[3-fluoro-4-(hydroxymethyl)-phenyl]-urea] |
| 21 | COc1cccc(-n2nc(C(F)(F)F)cc2CNC(=O)C(C)c2ccc(CO)c(F)c2)c1 (centres unmarked) [A43, 2-[3-Fluoro-4-(hydroxymethyl)-phenyl]-N-[[2-(3-methoxyphenyl)-5-(trifluoromethyl)-2H-pyrazol-3-yl]-methyl]-propionamide] |
| 40 | O=C(NCc1cc(C(F)(F)F)nn1-c1ccc(F)c(Cl)c1)Nc1ccc(OCCO)c(F)c1 [A22, 1-[[2-(3-Chloro-4-fluoro-phenyl)-5-(trifluoromethyl)-2H-pyrazol-3-yl]-methyl]-3-[3-fluoro-4-(2-hydroxy-ethoxy)-phenyl]-urea] |
| 3 | CC(C(=O)NCc1cc(C2CC2)nn1-c1cccc(Cl)c1)c1ccc(CO)c(F)c1 (centres unmarked) [A31, N-[[2-(3-Chlorophenyl)-5-cyclopropyl-2H-pyrazol-3-yl]-methyl]-2-[3-fluoro-4-(hydroxymethyl)-phenyl]-propionamide] |
| 22 | O=C(NCc1cc(C(F)(F)F)nn1-c1cccc(Cl)c1)Nc1ccc(CO)cc1 [A28, 1-[[2-(3-Chlorophenyl)-5-(trifluoromethyl)-2H-pyrazol-3-yl]-methyl]-3-[4-(hydroxymethyl)-phenyl]-urea] |
| 21 | O=C(Cc1ccc(CO)c(F)c1)NCc1cc(C(F)(F)F)nn1-c1cccc(Cl)c1 [A30, N-[[2-(3-Chlorophenyl)-5-(trifluoromethyl)-2H-pyrazol-3-yl]-methyl]-2-[3-fluoro-4-(hydroxymethyl)-phenyl]-acetamide] |
| 48 | O=C(NCc1cc(C(F)(F)F)nn1-c1cccc(Cl)c1)Nc1ccc(C2(O)COC2)cc1 [A108, 1-[[2-(3-Chlorophenyl)-5-(trifluoromethyl)-2H-pyrazol-3-yl]-methyl]-3-[4-(3-hydroxy-oxetan-3-yl)-phenyl]-urea] |
| 57 | C[C@H](C(=O)NCc1cc(C(F)(F)F)nn1-c1cccc(Cl)c1)c1ccc(COCCO)c(F)c1 [A119, (2S)-N-[[2-(3-Chlorophenyl)-5-(trifluoromethyl)-2H-pyrazol-3-yl]-methyl]-2-[3-fluoro-4-(2-hydroxy-ethoxy-methyl)-phenyl]-propionamide] |
